Assay results from patent US20240158392A1 (Janssen Biotech, Inc., priority 2021, published 2024).

Legend:
SIK2 [1] = target: T1, SIK2 (Homo sapiens, UniProt Q9H0K1); test: SIK2 Enzymatic Assay Version 1 (ADP Glo); assay type: biochemical; conditions: enzyme 0.6 nM, 160 μM ATP and 140 μM HDAC5tide (each 2× final concentration); 30 minutes pre-incubation, 4 hours; ADPGlo luminescence; read-out: SIK2 ADP Glo IC50 (μM) (Test Example 1)
Outline: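 Kinase activity read as ADP production by ADP-Glo luminescence, all steps at room temperature. Compound and SIK2 (0.6 nM, a 2× concentration) were preincubated 30 min; ATP-only wells lacking peptide were the negative control; depletion 40 min, detection ≥30 min.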

SIK2 [2] = target: T1, SIK2; test: SIK2 Enzymatic Assay High Version 2 (High ATP); assay type: biochemical
Outline: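 At room temperature, enzyme (6 nM, 2× final) was preincubated with compound for 30 min, then 6 mM ATP and 400 μM HDAC5tide (both 2× final) were added for 2 h. ADP formed was measured by ADP-Glo Max (2 h reagent, 1 h detection) using luminescence.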

T1 sequence (Q9H0K1 whole entry, species assumed): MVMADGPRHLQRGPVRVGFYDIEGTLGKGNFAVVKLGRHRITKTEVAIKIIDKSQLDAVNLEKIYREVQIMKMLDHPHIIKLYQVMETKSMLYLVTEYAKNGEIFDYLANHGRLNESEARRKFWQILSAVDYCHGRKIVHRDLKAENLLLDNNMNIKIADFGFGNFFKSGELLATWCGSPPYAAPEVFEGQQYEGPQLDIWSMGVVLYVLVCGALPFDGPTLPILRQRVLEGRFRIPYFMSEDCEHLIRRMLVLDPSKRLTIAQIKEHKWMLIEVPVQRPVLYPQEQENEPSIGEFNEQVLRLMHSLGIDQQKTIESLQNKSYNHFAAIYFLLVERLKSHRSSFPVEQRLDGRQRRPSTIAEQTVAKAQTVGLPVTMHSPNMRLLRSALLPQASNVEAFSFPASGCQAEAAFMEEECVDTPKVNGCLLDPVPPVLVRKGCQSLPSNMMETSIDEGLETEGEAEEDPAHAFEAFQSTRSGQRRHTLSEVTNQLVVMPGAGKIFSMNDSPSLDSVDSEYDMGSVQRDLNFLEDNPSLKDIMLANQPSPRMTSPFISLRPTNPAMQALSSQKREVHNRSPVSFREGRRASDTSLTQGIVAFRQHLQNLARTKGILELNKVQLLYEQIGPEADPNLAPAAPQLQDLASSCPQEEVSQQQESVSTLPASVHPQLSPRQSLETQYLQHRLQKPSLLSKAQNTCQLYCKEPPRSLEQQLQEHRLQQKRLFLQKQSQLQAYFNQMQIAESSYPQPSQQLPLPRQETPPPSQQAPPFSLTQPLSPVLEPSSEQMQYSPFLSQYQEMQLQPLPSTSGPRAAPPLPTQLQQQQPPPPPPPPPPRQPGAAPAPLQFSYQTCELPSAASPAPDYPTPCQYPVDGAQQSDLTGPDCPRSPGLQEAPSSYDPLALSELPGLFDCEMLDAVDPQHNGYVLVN

Row | IC50 (SIK2 [1]) [µM] | IC50 (SIK2 [2]) [nM] | Compound
1 | 0.000443 | 8.45 | N#Cc1cc(-c2ccn3nc(NC(=O)C4CC4)cc3c2)c(OC[C@H]2C[C@@H](N)C2)cn1 [Example 175, N-(5-(5-(((1s,3s)-3-aminocyclobutyl)methoxy)-2-cyanopyridin-4-yl)pyrazolo[1,5-a]pyridin-2-yl)cyclopropanecarboxamide]
2 | 0.00196 | 55.5 | N#Cc1cc(-c2ccn3nc(NC(=O)C4CC4)cc3c2)c(OC[C@H]2C[C@@H](Nc3ccccn3)C2)cn1 [Example 176, cis-N-[5-[2-cyano-5-[[3-(2-pyridylamino)cyclobutyl]methoxy]-4-pyridyl]pyrazolo[1,5-a]pyridin-2-yl]cyclopropanecarboxamide]
3 | 0.00137 | 29.3 | Cn1ccc(N[C@H]2C[C@@H](COc3cnc(C#N)cc3-c3ccn4nc(NC(=O)C5CC5)cc4c3)C2)n1 [Example 177, cis-N-[5-[2-cyano-5-[[3-[(1-methylpyrazol-3-yl)amino]cyclobutyl]methoxy]-4-pyridyl]pyrazolo[1,5-a]pyridin-2-yl]cyclopropanecarboxamide]
4 | 0.00236 | 32 | Cc1cc(-c2ccn3nc(Nc4ccn(C)n4)cc3c2)c(O[C@H]2CC[C@H](O)CC2)cn1 [Example 181, trans-4-[[6-methyl-4-[2-[(1-methylpyrazol-3-yl)amino]pyrazolo[1,5-a]pyridin-5-yl]-3-pyridyl]oxy]cyclohexanol]
5 | 0.00176 | 33.8 | Cc1cc(-c2ccn3nc(Nc4ccccn4)cc3c2)c(O[C@H]2CC[C@H](O)CC2)cn1 [Example 182, trans-4-[[6-methyl-4-[2-(2-pyridylamino)pyrazolo[1,5-a]pyridin-5-yl]-3-pyridyl]oxy]cyclohexanol]
6 | 0.00175 | 14 | Cc1cc(-c2ccn3nc(Nc4ccn(C)n4)cc3c2)c(O[C@H]2CC[C@@H](O)CC2)cn1 [Example 184, cis-4-[[6-methyl-4-[2-[(1-methylpyrazol-3-yl)amino]pyrazolo[1,5-a]pyridin-5-yl]-3-pyridyl]oxy]cyclohexanol]
7 | 0.000366 | < 0.838 | CC#Cc1cc(-c2ccn3nc(NC(=O)C4CC4)cc3c2)c(O[C@H]2CC[C@H](O)CC2)cn1 [Example 185, trans-N-[5-[5-(4-hydroxycyclohexoxy)-2-prop-1-ynyl-4-pyridyl]pyrazolo[1,5-a]pyridin-2-yl]cyclopropanecarboxamide]
8 | 0.00439 | 83.1 | Cc1cc(-c2ccn3nc(Nc4cccnc4)cc3c2)c(O[C@H]2CC[C@H](O)CC2)cn1 [Example 290, (1r,4r)-4-((6-methyl-4-(2-(pyridin-3-ylamino)pyrazolo[1,5-a]pyridin-5-yl)pyridin-3-yl)oxy)cyclohexan-1-ol]
9 | 0.0012 | 11.5 | Cc1ccnc(Nc2cc3cc(-c4cc(C)ncc4OC[C@@H]4CNCCO4)ccn3n2)c1 [Example 427, 5-[2-methyl-5-[[(2S)-morpholin-2-yl]methoxy]-4-pyridyl]-N-(4-methyl-2-pyridyl)pyrazolo[1,5-a]pyridin-2-amine]
10 | 0.00201 | 20.8 | Cc1cc(-c2ccn3nc(Nc4ccccn4)cc3c2)c(OC[C@H]2CNCCO2)cn1 [Example 428, 5-[2-methyl-5-[[(2R)-morpholin-2-yl]methoxy]-4-pyridyl]-N-(2-pyridyl)pyrazolo[1,5-a]pyridin-2-amine]
11 | 0.000345 | 1.71 | Cc1cc(-c2ccn3nc(Nc4cc(C)nc(C)n4)cc3c2)c(OC[C@@H]2CNCCO2)cn1 [Example 432, N-(2,6-dimethylpyrimidin-4-yl)-5-[2-methyl-5-[[(2S)-morpholin-2-yl]methoxy]-4-pyridyl]pyrazolo[1,5-a]pyridin-2-amine]
12 | 0.00106 | 12.1 | CC#Cc1cc(-c2ccn3nc(NC(=O)C4CC4)cc3c2)c(OC[C@@H]2CCN(C)C2)cn1 [Example 441, N-[5-[5-[[(3R)-1-methylpyrrolidin-3-yl]methoxy]-2-prop-1-ynyl-4-pyridyl]pyrazolo[1,5-a]pyridin-2-yl]cyclopropanecarboxamide]
13 | 0.000323 | 3.75 | CC#Cc1cc(-c2ccn3nc(NC(=O)C4CC4)cc3c2)c(OC2CN(C)C2)cn1 [Example 442, N-[5-[5-(1-methylazetidin-3-yl)oxy-2-prop-1-ynyl-4-pyridyl]pyrazolo[1,5-a]pyridin-2-yl]cyclopropanecarboxamide]
14 | 0.00205 | 27.1 | CC(C)(C#N)COc1cnc(OC(F)F)cc1-c1ccn2nc(Nc3ccn4ncnc4c3)cc2c1 [Example 475, 3-[[6-(difluoromethoxy)-4-[2-([1,2,4]triazolo[1,5-a]pyridin-7-ylamino)pyrazolo[1,5-a]pyridin-5-yl]-3-pyridyl]oxy]-2,2-dimethyl-propanenitrile]
15 | 0.00386 | 55.6 | N#Cc1ccc(OC[C@@H]2CCNC2)c(-c2ccn3nc(NC(=O)C4CC4)cc3c2)c1 [Example 476, N-[5-[5-cyano-2-[[(3R)-pyrrolidin-3-yl]methoxy]phenyl]pyrazolo[1,5-a]pyridin-2-yl]cyclopropanecarboxamide]
16 | 0.00294 | 116 | Cc1cc(-c2ccn3nc(Nc4cc(C)nc(C)n4)cc3c2)c(O[C@H]2CC[C@H](O)CC2)nn1 [Example 488, 4-[4-[2-[(2,6-dimethylpyrimidin-4-yl)amino]pyrazolo[1,5-a]pyridin-5-yl]-6-methyl-pyridazin-3-yl]oxycyclohexanol]
17 | 0.000791 | 10.3 | CN1CC[C@@H](COc2cnccc2-c2ccn3nc(NC(=O)C4CC4)cc3c2)C1 [Example 489, N-[5-[3-[[(3R)-1-methylpyrrolidin-3-yl]methoxy]-4-pyridyl]pyrazolo[1,5-a]pyridin-2-yl]cyclopropanecarboxamide]
18 | 0.0013 | 17.9 | CN1CC[C@@H](COc2cnc(Cl)cc2-c2ccn3nc(NC(=O)C4CC4)cc3c2)C1 [Example 490, N-[5-[2-chloro-5-[[(3R)-1-methylpyrrolidin-3-yl]methoxy]-4-pyridyl]pyrazolo[1,5-a]pyridin-2-yl]cyclopropanecarboxamide]
19 | 0.0038 | 68.2 | O=C(Nc1cc2cc(-c3cc(OC(F)F)ncc3OC[C@@H]3CNCCO3)ccn2n1)C1CC1 [Example 503, N-[5-[2-(difluoromethoxy)-5-[[(2S)-morpholin-2-yl]methoxy]-4-pyridyl]pyrazolo[1,5-a]pyridin-2-yl]cyclopropanecarboxamide]
20 | 0.00366 | 53.7 | Cc1cc(-c2cn3cc(NC(=O)C4CC4)nc3cn2)c(OCC(C)(C)C#N)cn1 [Example 508, N-[6-[5-(2-cyano-2-methyl-propoxy)-2-methyl-4-pyridyl]imidazo[1,2-a]pyrazin-2-yl]cyclopropanecarboxamide]
21 | 0.00321 | 55.9 | Cc1cc(-c2ccn3nc(NC(=O)C4CC4)cc3c2)c(OC[C@@H]2CCN(C)C2)cn1 [Example 509, N-[5-[2-methyl-5-[[(3R)-1-methylpyrrolidin-3-yl]methoxy]-4-pyridyl]pyrazolo[1,5-a]pyridin-2-yl]cyclopropanecarboxamide]
22 | 0.00389 | 101 | Cn1ccc(Nc2cc3cc(-c4cc(C#N)ccc4OC[C@H]4CNCCO4)ccn3n2)n1 [Example 566, 3-[2-[(1-methylpyrazol-3-yl)amino]pyrazolo[1,5-a]pyridin-5-yl]-4-[[(2R)-morpholin-2-yl]methoxy]benzonitrile]
23 | 0.00757 | 251 | Cc1cc(-c2ccn3nc(Nc4ccccn4)cc3c2)c(OC2CN(C)C2)cn1 [Example 567, 5-[2-methyl-5-(1-methylazetidin-3-yl)oxy-4-pyridyl]-N-(2-pyridyl)pyrazolo[1,5-a]pyridin-2-amine]
24 | 0.00471 | 93.3 | Cc1cc(-c2ccn3nc(Nc4cnn(C)c4)cc3c2)c(OC2CN(C)C2)cn1 [Example 568, 5-[2-methyl-5-(1-methylazetidin-3-yl)oxy-4-pyridyl]-N-(1-methylpyrazol-4-yl)pyrazolo[1,5-a]pyridin-2-amine]
25 | 0.00412 | 61.1 | CCOc1cnc(C#N)cc1-c1ccn2nc(NC(=O)C3CC3)cc2c1 [Example 583, N-[5-(2-cyano-5-ethoxy-4-pyridyl)pyrazolo[1,5-a]pyridin-2-yl]cyclopropanecarboxamide]
26 | 0.00253 | 35.3 | N#Cc1cc(-c2ccn3nc(NC(=O)C4CC4)cc3c2)c(OCC2CC2)cn1 [Example 584, N-[5-[2-cyano-5-(cyclopropylmethoxy)-4-pyridyl]pyrazolo[1,5-a]pyridin-2-yl]cyclopropanecarboxamide]
27 | 0.00148 | 16.9 | N#Cc1cc(-c2ccn3nc(NC(=O)C4CC4)cc3c2)c(OC[C@@H]2CCCNC2)cn1 [Example 585, N-[5-[2-cyano-5-[[(3R)-3-piperidyl]methoxy]-4-pyridyl]pyrazolo[1,5-a]pyridin-2-yl]cyclopropanecarboxamide]

Row | Compound | IC50 (SIK2 [1]) [µM] | IC50 (SIK2 [2]) [nM]
28 | Cc1cc(-c2ccn3nc(NC(=O)C4CC4)cc3c2)c(O[C@H]2C[C@](C)(N)C2)cn1 [Example 444, N-(5-(5-((1r,3r)-3-amino-3-methylcyclobutoxy)-2-methylpyridin-4-yl)pyrazolo[1,5-a]pyridin-2-yl)cyclopropanecarboxamide] | 0.000605 | 1.63
29 | CN1[C@@H]2COC[C@H]1CC(Nc1cnc(C#N)cc1-c1ccn3nc(NC(=O)C4CC4)cc3c1)C2 (stereo partly drawn) [Example 565, N-[5-[2-cyano-5-[[(1R,5S)-9-methyl-3-oxa-9-azabicyclo[3.3.1]nonan-7-yl]amino]-4-pyridyl]pyrazolo[1,5-a]pyridin-2-yl]cyclopropanecarboxamide] | 0.00384 | 88.2
